As a reminder, the inhibition is the change of the read-out against control, counted positive when it falls.

From patent US12630534B2 (TAKEDA PHARMACEUTICAL COMPANY LIMITED, priority 2020, dated 2026) come the findings set out here.

For this assay, the target named is T1, human GPR139 (Homo sapiens, UniProt Q6DWJ6).
T1 construct: expressed in transfected cells; host or cells: CHO-TREx (Life Technologies) cells, expression induced with doxycycline
T1 sequence (Q6DWJ6 1-353): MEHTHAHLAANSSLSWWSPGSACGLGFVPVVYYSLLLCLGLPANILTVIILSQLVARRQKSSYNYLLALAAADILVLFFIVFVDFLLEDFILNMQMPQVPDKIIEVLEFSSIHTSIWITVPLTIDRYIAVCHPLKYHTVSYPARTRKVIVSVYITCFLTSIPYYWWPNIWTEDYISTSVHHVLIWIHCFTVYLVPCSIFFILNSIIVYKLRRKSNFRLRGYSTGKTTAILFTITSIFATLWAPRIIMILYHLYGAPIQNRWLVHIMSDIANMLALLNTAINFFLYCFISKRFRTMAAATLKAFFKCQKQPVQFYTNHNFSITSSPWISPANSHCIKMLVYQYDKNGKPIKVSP
Put plainly: Inhibition rate of the amount of IP1 in GPR139-expressed CHO cells (inverse agonist assay, Test Example 2). The assay is classed as cell-based. The note with it: relative value, inhibition rate of Example Compound 2 in Test Example 1 defined as 100%; for inhibition at 30 µM: CHO. Summed up:
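CHO-TREx cells with doxycycline-inducible human GPR139 (2 μg/mL, 17 h) were incubated with compound at 2000 cells/well for 40 min at 37° C. IP1 quantified by HTRF (665/615 nm ratio ×10000); inhibition rate expressed relative to a reference compound defined as […].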

As for `Cc1cn(Cc2cnn(C(C)C)c2)c(=O)n1-c1cc(OC[C@@H]2CCCO2)cc(C(F)(F)F)c1` [Example 101, 4-methyl-3-[3-{[(2S)-oxolan-2-yl]methoxy}-5-(trifluoromethyl)phenyl]-1-{[1-(propan-2-yl)-1H-pyrazol-4-yl]methyl}-1,3-dihydro-2H-imidazol-2-one], the inhibition at 30 µM was 99%.
The same measure, in the same setting: the figure for `CCn1cc(Cn2ccn(-c3cc(OC4CCOCC4)cc(C(F)(F)F)c3F)c2=O)cn1` [Example 116, 1-[(1-ethyl-1H-pyrazol-4-yl)methyl]-3-{2-fluoro-5-[(oxan-4-yl)oxy]-3-(trifluoromethyl)phenyl}-1,3-dihydro-2H-imidazol-2-one] is 101%; for `CCn1cc(Cn2ccn(-c3cc(N4CCO[C@H](C)C4)cc(C(F)(F)F)c3Cl)c2=O)cn1` [Example 15, 1-{2-chloro-5-[(2R)-2-methylmorpholin-4-yl]-3-(trifluoromethyl)phenyl}-3-[(1-ethyl-1H-pyrazol-4-yl)methyl]-1,3-dihydro-2H-imidazol-2-one] it is 101%.
Same read-out and setting: the figure for `CCn1cc(Cn2cnn(-c3cc(N4CCO[C@H](C)C4)cc(C(F)(F)F)c3F)c2=O)cn1` [Example 27, 4-[(1-ethyl-1H-pyrazol-4-yl)methyl]-2-{2-fluoro-5-[(2R)-2-methylmorpholin-4-yl]-3-(trifluoromethyl)phenyl}-2,4-dihydro-3H-1,2,4-triazol-3-one] is 99%; for `CCn1cc(Cn2cc(C)n(-c3cc(C(F)(F)F)c(F)c(N4CCO[C@H](C)C4)n3)c2=O)cn1` [Example 149, 1-[(1-ethyl-1H-pyrazol-4-yl)methyl]-3-{5-fluoro-6-[(2R)-2-methylmorpholin-4-yl]-4-(trifluoromethyl)pyridin-2-yl}-4-methyl-1,3-dihydro-2H-imidazol-2-one] it is 101%; for `CCn1cc(Cn2ccn(-c3cc(N4CCO[C@H](C)C4)cc(C4CC4(F)F)c3F)c2=O)cn1` (stereo partly drawn) [Example 78, 1-{3-(2,2-difluorocyclopropyl)-2-fluoro-5-[(2R)-2-methylmorpholin-4-yl]phenyl}-3-[(1-ethyl-1H-pyrazol-4-yl)methyl]-1,3-dihydro-2H-imidazol-2-one] it is 99%.
The same measure, in the same setting: the value for `CCn1cc(Cn2cc(C)n(-c3cc(N4CCO[C@@H](C)C4)cc(C(F)(F)F)c3)c2=O)cn1` [Example 28, 1-[(1-ethyl-1H-pyrazol-4-yl)methyl]-4-methyl-3-{3-[(2S)-2-methylmorpholin-4-yl]-5-(trifluoromethyl)phenyl}-1,3-dihydro-2H-imidazol-2-one] was 99%; that for `CCn1cc(Cn2cc(C)n(-c3cc(OCC(F)F)cc(N4CCO[C@H](C)C4)c3)c2=O)cn1` [Example 71, 3-{3-(2,2-difluoroethoxy)-5-[(2R)-2-methylmorpholin-4-yl]phenyl}-1-[(1-ethyl-1H-pyrazol-4-yl)methyl]-4-methyl-1,3-dihydro-2H-imidazol-2-one] was 98%.
As to `CCn1cc(Cn2cc(C)n(-c3cc(C(F)(F)F)nn3CCC3CCC3)c2=O)cn1` [Example 77, 3-[1-(2-cyclobutylethyl)-3-(trifluoromethyl)-1H-pyrazol-5-yl]-1-[(1-ethyl-1H-pyrazol-4-yl)methyl]-4-methyl-1,3-dihydro-2H-imidazol-2-one], the inhibition at 30 µM was 100%.
Still for that read-out and setting: the value for `CCn1cc(Cn2cc(C)n(-c3cc(C4CC4)cc(N4CCO[C@H](C)C4)c3)c2=O)cn1` [Example 104, 3-{3-cyclopropyl-5-[(2R)-2-methylmorpholin-4-yl]phenyl}-1-[(1-ethyl-1H-pyrazol-4-yl)methyl]-4-methyl-1,3-dihydro-2H-imidazol-2-one] was 104%.
Same read-out and setting: the value for `CCn1cc(Cn2c(C)cn(-c3nc(N4CCO[C@H](C)C4)cc(C(F)(F)F)c3F)c2=O)cn1` [Example 30] was 99%; that for `Cc1cn(Cc2cnn(C(C)C)c2)c(=O)n1-c1cc(C(F)(F)F)cc(OC[C@@H]2CCCO2)n1` [Example 148, 4-methyl-3-[6-{[(2S)-oxolan-2-yl]methoxy}-4-(trifluoromethyl)pyridin-2-yl]-1-{[1-(propan-2-yl)-1H-pyrazol-4-yl]methyl}-1,3-dihydro-2H-imidazol-2-one] was 101%; that for `CCn1cc(Cn2c(C)nn(-c3cc(N4CCC(F)(F)CC4)cc(C(F)(F)F)c3C)c2=O)cn1` [Example 161, 2-[5-(4,4-difluoropiperidin-1-yl)-2-methyl-3-(trifluoromethyl)phenyl]-4-[(1-ethyl-1H-pyrazol-4-yl)methyl]-5-methyl-2,4-dihydro-3H-1,2,4-triazol-3-one] was 100%.
Regarding `CCn1cc(Cn2ccn(-c3cc(-c4ccc(F)cc4)cc(C(F)(F)F)c3)c2=O)cn1` [Example 1, 1-[(1-Ethyl-1H-pyrazole-4-yl)methyl]-3-[4′-fluoro-5-(trifluoromethyl)[1,1′-biphenyl]-3-yl]-1,3-dihydro-2H-imidazole-2-one], the inhibition at 30 µM amounted to 99%.
On the same count and under the same terms, the value for `CCn1cc(Cn2cc(C)n(-c3cc(-n4cnc(C)c4)cc(C(F)(F)F)c3)c2=O)cn1` [Example 21, 1-[(1-ethyl-1H-pyrazol-4-yl)methyl]-4-methyl-3-[3-(4-methyl-1H-imidazol-1-yl)-5-(trifluoromethyl)phenyl]-1,3-dihydro-2H-imidazol-2-one] was 99%.
On to `CC(C)n1cc(Cn2ccn(-c3cc(N(C)C4CCOCC4)cc(C(F)(F)F)c3F)c2=O)cn1` [Example 61, 1-{2-fluoro-5-[methyl(oxan-4-yl)amino]-3-(trifluoromethyl)phenyl}-3-{[1-(propan-2-yl)-1H-pyrazol-4-yl]methyl}-1,3-dihydro-2H-imidazol-2-one], for which the inhibition at 30 µM was found to be 102%.
The same measure, in the same setting: the figure for `Cc1cn(Cc2cnn(C(C)C)c2)c(=O)n1-c1cc(C(F)(F)F)cc(N2CCO[C@H](C)C2)n1` [Example 103, 4-Methy-3-{6-[(2R)-2-methylmorpholine-4-yl]-4-(trifluoromethyl)pyridine-2-yl}-1-{[1-(propane-2-yl)-1H-pyrazole-4-yl]methyl}-1,3-dihydro-2H-imidazole-2-one] is 103%; for `CCn1cc(Cn2cc(C)n(-c3cc(OCC(F)(F)F)cc(N4CCO[C@H](C)C4)n3)c2=O)cn1` [Example 105, 1-[(1-ethyl-1H-pyrazol-4-yl)methyl]-4-methyl-3-{6-[(2R)-2-methylmorpholin-4-yl]-4-(2,2,2-trifluoroethoxy)pyridin-2-yl}-1,3-dihydro-2H-imidazol-2-one] it is 103%; for `CCn1cc(Cn2cc(C)n(-c3cc(Br)cc(OCC4CC(F)(F)C4)c3)c2=O)cn1` [Example 65, 3-{3-bromo-5-[(3,3-difluorocyclobutyl)methoxy]phenyl}-1-[(1-ethyl-1H-pyrazol-4-yl)methyl]-4-methyl-1,3-dihydro-2H-imidazol-2-one] it is 98%.
In the case of `CCn1cc(Cn2cc(C)n(-c3cc(C(F)(F)F)cc(OCC4CCCO4)n3)c2=O)cn1` (centres unmarked) [Example 109, 1-[(1-ethyl-1H-pyrazol-4-yl)methyl]-4-methyl-3-{6-[(oxolan-2-yl)methoxy]-4-(trifluoromethyl)pyridin-2-yl}-1,3-dihydro-2H-imidazol-2-one], the “Inhibition Rate at 30 μM” value (30 µM) amounted to 101%.
For `CCn1cc(Cn2ccn(-c3nc(N4CCO[C@H](C)C4)cc(C(F)(F)F)c3F)c2=O)cn1` [Example 26, 1-[(1-ethyl-1H-pyrazol-4-yl)methyl]-3-{3-fluoro-6-[(2R)-2-methylmorpholin-4-yl]-4-(trifluoromethyl)pyridin-2-yl}-1,3-dihydro-2H-imidazol-2-one], the inhibition at 30 µM turned out to be 100%.
Same read-out and setting: the value for `Cc1cc(N2CCO[C@H](C)C2)cc(-n2cc(C)n(Cc3cnn(C(C)C)c3)c2=O)c1F` [Example 87, 1-{2-fluoro-3-methyl-5-[(2R)-2-methylmorpholin-4-yl]phenyl}-4-methyl-3-{[1-(propan-2-yl)-1H-pyrazol-4-yl]methyl}-1,3-dihydro-2H-imidazol-2-one] was 98%; that for `CCn1cc(Cn2cc(C)n(-c3cc(OCC4(F)CCC4)cc(C(F)(F)F)c3)c2=O)cn1` [Example 52, 1-[(1-ethyl-1H-pyrazol-4-yl)methyl]-3-{3-[(1-fluorocyclobutyl)methoxy]-5-(trifluoromethyl)phenyl}-4-methyl-1,3-dihydro-2H-imidazol-2-one] was 99%; that for `CCn1cc(Cn2cc(C)n(-c3cc(OC[C@@H]4CCCO4)cc(C(F)(F)F)c3F)c2=O)cn1` [Example 107, 1-[(1-ethyl-1H-pyrazol-4-yl)methyl]-3-[2-fluoro-5-{[(2S)-oxolan-2-yl]methoxy}-3-(trifluoromethyl)phenyl]-4-methyl-1,3-dihydro-2H-imidazol-2-one] was 104%.
Same read-out and setting: the figure for `CCn1cc(Cn2cc(C)n(-c3cc(OCC(F)(F)F)cc(N(C)C4CCOCC4)c3)c2=O)cn1` [Example 88, 1-[(1-ethyl-1H-pyrazol-4-yl)methyl]-4-methyl-3-{3-[methyl(oxan-4-yl)amino]-5-(2,2,2-trifluoroethoxy)phenyl}-1,3-dihydro-2H-imidazol-2-one] is 99%; for `CCn1cc(Cn2cc(C)n(-c3cc(OCC4CC(F)(F)C4)cc(C(F)(F)F)c3)c2=O)cn1` [Example 7, 3-{3-[(3,3-difluorocyclobutyl)methoxy]-5-(trifluoromethyl)phenyl}-1-[(1-ethyl-1H-pyrazol-4-yl)methyl]-4-methyl-1,3-dihydro-2H-imidazol-2-one] it is 102%.
